In US10821142B2, “Cancer treatment and diagnosis” (priority 2015, dated 2020):

Legend:
Type in all cases: cell-based, human
[1] = system: STING and cGAS expression; test: STING and cGAS expression in melanoma cells after 5AZADC (qPCR, immunoblot, RNA FISH); settings: 5 days
Procedure: (§1) FIGS. 30A-30G show DNA demethylation partially recapitulated STING and cGAS expression in human melanoma cell lines. FIG. 30A, qPCR analysis of cGAS expression in indicated human melanoma cells mock treated or treated with 1 μM […] (5AZADC) for 5 days. FIG. 30B, Immunoblot analysis of STING in indicated human melanoma cells treated same as above. FIG. 30C, RNA FISH analysis of STING and cGAS in cells (same as above) treated with 5AZADC same as above. Representative images are shown at 1260×. Bar size, 400 nm. qPCR analysis of IFNB (FIG. 30D) and CXCL10 (FIG. 30E) in cells (same as above) treated with 5AZADC followed by dsDNA transfection at 3 μg/ml dsDNA90 for 3 hours. Immunofluorescence Microscopy analysis of IRF3 translocation (FIG. 30F) and STING translocation (FIG. 30G) in indicated cells treated same as in FIG. 30D. Representative images are shown at 1260×. Bar size, 500 nm.
In view of this, it was examined whether STING or cGAS expression was suppressed by epigenetic processes, such as by hypermethylation of the promoter regions (20, 21). Indeed, databank analysis indicated the presence of considerable CpG islands within the STING and cGAS promoter region. As such, melanoma cells lacking either STING or cGAS expression were treated with the de-methylating agent 5-Aza-2′-deoxycytidine (5AZADC) for 5 days and evaluated recapitulation of STING or cGAS expression. […] Therefore DNA hypermethylation is involved in silencing STING or cGAS expression in some melanoma cells (A375 and MeWo). However it is not yet clear why expression levels of STING are muted in the remainder melanoma cells (G361, SK-MEL-5). Other epigenetic modifications such as histone modifications or other transcription regulator factors such as miRNA could be involved in suppressing STING and/or cGAS expression (Jin et al., 2013, Yarbrough et al., 2014). To determine if reconstitution of STING/cGAS expression rescued STING-dependent dsDNA signaling, IFNB and CXCL10 induction was examined in 5AZADC treated melanoma cells following dsDNA stimulation. […] Thus, demethylating agents may be able to partially rescue STING-dependent innate immune gene induction in select melanoma cells.
Equal amounts of proteins were resolved on sodium dodecyl sulfate (SDS)-Polyacrylamide gels and then transferred to polyvinylidene fluoride (PVDF) membranes (Millipore). After blocking with 5% Blocking Reagent, membranes were incubated with various primary antibodies (and appropriate secondary antibodies). The image was resolved using an enhanced chemiluminescence system ECL (Thermo Scientific) and detected by autoradiography (Kodak). Antibodies: rabbit polyclonal antibody against STING was developed in our laboratory as described previously in Ishikawa et al, 2008; other antibodies were obtained from following sources: β-actin (Sigma Aldrich), p-IRF3 (Cell Signaling), IRF3 (Santa Cruz Biotechnology), p-p65 (Cell Signaling), p65 (Cell Signaling), p-TBK1 (Cell Signaling), TBK1 (Abcam), cGAS (Cell Signaling).
Total RNA was reverse-transcribed using QuantiTect Reverse Transcription Kit (Qiagen). Real-time PCR was performed with the TaqMan gene Expression Assay (Applied Biosystems).
STING and cGAS RNA probed was custom designed by ACD and RNA in situ Hybridization was performed using RNAscope® Multiplex Fluorescent Reagent Kit for cultured cells and 2-plex RNAscope® Reagent Kit for FFPE cells and tissue following the manufacturer's instruction.

[2] = system: STING-dependent dsDNA signaling; test: IFNB and CXCL10 induction by dsDNA in 5AZADC treated melanoma cells
Procedure: as §1
In view of this, it was examined whether STING or cGAS expression was suppressed by epigenetic processes, such as by hypermethylation of the promoter regions (20, 21). Indeed, databank analysis indicated the presence of considerable CpG islands within the STING and cGAS promoter region. As such, melanoma cells lacking either STING or cGAS expression were treated with the de-methylating agent 5-Aza-2′-deoxycytidine (5AZADC) for 5 days and evaluated recapitulation of STING or cGAS expression. […] Therefore DNA hypermethylation is involved in silencing STING or cGAS expression in some melanoma cells (A375 and MeWo). However it is not yet clear why expression levels of STING are muted in the remainder melanoma cells (G361, SK-MEL-5). Other epigenetic modifications such as histone modifications or other transcription regulator factors such as miRNA could be involved in suppressing STING and/or cGAS expression (Jin et al., 2013, Yarbrough et al., 2014). […]
Total RNA was reverse-transcribed using QuantiTect Reverse Transcription Kit (Qiagen). […]

[3] = system: STING-dependent dsDNA signaling; test: STING signal activation by dsDNA90 in colon cancer cells after demethylation; settings: for phosphorylation of TBK1 and IRF3 after dsDNA: 5AZADC 5 days then dsDNA90 3 μg/ml
[4] = system: cGAS expression; test: cGAS expression (qPCR) in cGAS negative colon cancer cells after epigenetic drug treatment; settings: LS174T, SW480, SW1417, SW48, HT116; 5 days; rescued: SW480 and HT116
Procedure: FIGS. 5A-5F show STING activation and cytosolic DNA pathway in colon cancer cells were mostly defective: A series of colon cancer cells as well as normal cell controls were either mock transfected or transfected with dsDNA90 at 3 μg/ml for 3 hours, and were analyzed by Immunofluorescence Microscopy for STING translocation (FIG. 5A), IRF3 translocation (FIG. 5B), and p65 translocation (FIG. 5C). (FIG. 5D) Cells, same as above, were either mock transfected or transfected with dsDNA90 at 3 μg/ml for indicated time periods followed by immunoblot analysis for STING phosphorylation as well as phosphorylation of TBK1, IRF3 and p65. β-actin was used as loading control. (FIG. 5E) Cells, same as above, were analyzed by qPCR for cGAS expression. (FIG. 5F) Cells that have undetectable level of cGAS in E were treated with 1 μM 5-azacytidine for […], followed by qPCR analysis for cGAS expression. […] Error bars indicate s.d.
FIGS. 15A-15E show cGAS expression is suppressed in many human colon cancer cell lines and can be partially recapitulated through DNA demethylation. […]
To complement the above study, the expression of cGAS in the colon cancer cell-lines was examined. […] Given these findings, examination of the expression of cGAS in 47 human colon cancers at various stages of tumorigenesis was analyzed (FIG. 13C). Expression of cGAS was low to undetectable in approximately 30% of cells analyzed. […]

Structure (SMILES): Nc1ncn([C@H]2C[C@H](O)[C@@H](CO)O2)c(=O)n1 [5AZADC, 5-Aza-2′-deoxycytidine]
- cGAS expression ([1]; A375 cells): cGAS expression was recovered
- STING expression ([1]; G361 and SK-MEL-5 cells): STING remained absent
- STING expression ([1]; MeWo cells, immunoblot and RNA FISH): STING expression was restored
- cGAS expression ([1]; SK-MEL-5 cells): partially restored
- cGAS expression ([1]; SK-MEL-24 cells): did not seem to affect cGAS expression level
- STING function following dsDNA stimulation ([2]; G361 or SK-MEL-5 cells): no STING function was observed
- IFNB induction following dsDNA stimulation ([2]; STING rescued MeWo cells): modest expression of IFNB
- IFNB and CXCL10 induction following dsDNA stimulation ([2]; cGAS rescued A375 cells): Induction of both IFNB and CXCL10 production was observed
- expression of type I IFN and IL-1β after dsDNA ([3]; 5AZADC treated SW480 and HT116, dsDNA90 3 μg/ml for 3 hours): modest expression of type I IFN and IL-1β
- phosphorylation of TBK1 and IRF3 after dsDNA ([3]; LS174T (cGAS not rescued)): not LS174T cells regained phosphorylation of TBK1 and IRF3
- phosphorylation of TBK1 and IRF3 after dsDNA ([3]; SW480, HT116 (cGAS rescued)): regained phosphorylation of TBK1 and IRF3
- cells in which cGAS expression was rescued [4]: 2 of the 5
